Molecular target: SARS-CoV-2 Mpro dimer (Severe acute respiratory syndrome coronavirus 2, UniProt P0DTD1)
Assay: SAXS monomer-dimer equilibrium of Mpro in the presence of inhibitors

CC(C)c1nc(CN(C)C(=O)N[C@H](C(=O)N[C@@H](Cc2ccccc2)C[C@H](O)[C@H](Cc2ccccc2)NC(=O)OCc2cncs2)C(C)C)cs1 [RTV, ritonavir]
ΔCp of Mpro dimer dissociation (Mpro alone 1.3 ± 0.4): 4 ± 1 kJ K^−1mol^−1
ΔS^0 of Mpro dimer dissociation (T0 = 298.15 K, Mpro alone −30 ± 10): −70 ± 50 J K^−1mol^−1
ΔH^0 of Mpro dimer dissociation (T0 = 298.15 K, derived parameter of the fit, Mpro alone 21 ± 4): 2.63 ± 1.2 kcal/mol

— publication PMC10093836, “Stabilization of the Dimeric State of SARS-CoV-2 Main Protease by GC376 and Nirmatrelvir” (International Journal of Molecular Sciences, 2023)
